From patent US20230072421A1, “TARGETED RADIOPHARMACEUTICALS FOR THE DIAGNOSIS AND TREATMENT OF PROSTATE CANCER” (Bayer AS, priority 2019, published 2023)

Assays:
[1] = target: T1, PSMA-expressing LNCaP cells (Homo sapiens, UniProt Q04609); test: Binding competition assay against 3H-PSMA-617 on LNCaP cells; details: for remaining activity at 0.01 µM / remaining activity at 0.1 µM / % remaining 3H-PSMA-617 @ 10 nM (mean) / % remaining 3H-PSMA-617 @ 100 nM (mean): LNCaP cells, 10 nM 3H-PSMA-617, 2 h at 37° C., triplicates; for remaining activity at 0.01 µM / % remaining 3H-PSMA-617 @ 10 nM (mean): competing non-radiolabeled compound 10 nM; for remaining activity at 0.1 µM / % remaining 3H-PSMA-617 @ 100 nM (mean): competing non-radiolabeled compound 100 nM; for competition against 3H-PSMA-617 on PSMA-expressing LNCaP cells (in words): comparison between examples
T1 construct: PSMA-expressing LNCaP cells; endogenous in cells; host or cells: LNCaP
In short: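 Compounds added to LNCaP cells in growth medium, 2 h at 37 °C, 5% CO2. After two ice-cold PBS washes, cells lysed in 0.3 M NaOH and bound radioactivity measured by liquid scintillation counting.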

[2] = tested on: VCap, C4-2, 22Rv1 and LnCap cells; test: Cell proliferation assay, summary statements over several cell lines; format: cell-based; details: for antiproliferative activity on VCap, C4-2, 22Rv1 and LnCap cells (in words): 227Th-labelled compounds bearing the HOPO chelator Example A
Experimental: Inhibition of cell proliferation of Thorium-227 labeled PMSA SMOL ligands was tested different prostate cancer cell lines, namely 22Rv1, VCaP, C4-2 (all from ATCC, Manassas, Va., USA) and LNCaP (DMSZ, Braunschweig). Cells were seeded using the following conditions in 384 well plates (Corning) in 30 μl of growth media at 4000 cells/well for VCaP cells and 1000 cells/well for 22Rv1, C4-2 and LNCaP cells.
Cells were cultivated an incubator at 37° C. and 5% C02 over night. […] In sister plates cell viability at treatment start (d=0) was determined using CellTiter-Glo® assay (CTG, Promega, Madison, Wis., USA), by adding 30 μl per well CTG solution, incubation for 10 min and reading of Luminescence in a PheraStarFSX instrument (BMG Labtech). After a 5-day exposure in the presenced of test compounds, cell viability of treated or untreated control cells was determined again using CellTiter-Glo® assay (Promega, Madison, Wis., USA). […] The DRC software is a Biobook Spreadsheet that was developed by Bayer AG and Bayer Business Services on the IDBS E-Workbook Suite platform (IDBS: ID Business Solutions Ltd., Guildford, UK).

[3] = tested on: LNCaP human prostate cancer cells; test: LNCaP xenograft efficacy study (T/C tumor area); format: in vivo, SCID mice; details: Example III; day 64 after start of therapy; single treatment 1.5 MBq/kg
In short: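 SCID mice with testosterone pellet bearing s.c. flank LNCaP xenografts (5×10^6 cells in Matrigel) were treated i.v. with a defined radioactive dose once tumors reached 35-50 mm^2 (n=10/group). Tumor area (caliper, longest diameter × perpendicular) measured 2-3× weekly; T/C ratio calculated from tumor areas when vehicle group closed.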

T1 sequence (Q04609 whole entry): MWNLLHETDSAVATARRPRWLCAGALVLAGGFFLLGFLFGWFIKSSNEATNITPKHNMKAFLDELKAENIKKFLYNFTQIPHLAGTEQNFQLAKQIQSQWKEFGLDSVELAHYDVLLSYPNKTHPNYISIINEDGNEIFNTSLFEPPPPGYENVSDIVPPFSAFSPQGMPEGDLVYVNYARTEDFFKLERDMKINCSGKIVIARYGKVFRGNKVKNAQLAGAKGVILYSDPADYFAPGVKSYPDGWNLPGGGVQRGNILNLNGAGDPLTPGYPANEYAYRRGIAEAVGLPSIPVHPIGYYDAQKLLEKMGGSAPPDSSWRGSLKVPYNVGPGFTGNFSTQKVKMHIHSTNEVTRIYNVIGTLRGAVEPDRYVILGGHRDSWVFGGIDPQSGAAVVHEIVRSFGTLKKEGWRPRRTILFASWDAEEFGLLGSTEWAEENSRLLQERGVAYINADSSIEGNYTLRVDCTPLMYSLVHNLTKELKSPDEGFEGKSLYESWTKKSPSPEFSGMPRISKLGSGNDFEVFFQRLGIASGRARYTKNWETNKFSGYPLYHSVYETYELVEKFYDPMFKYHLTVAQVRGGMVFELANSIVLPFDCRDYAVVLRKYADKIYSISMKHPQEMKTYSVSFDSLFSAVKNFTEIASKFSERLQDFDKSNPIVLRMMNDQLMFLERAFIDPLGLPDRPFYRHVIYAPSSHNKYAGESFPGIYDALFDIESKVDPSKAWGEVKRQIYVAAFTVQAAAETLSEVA

SMILES	remaining activity at 0.01 µM [1] [%]	remaining activity at 0.1 µM [1] [%]	competition against 3H-PSMA-617 on PSMA-expressing LNCaP cells (in words) [1]	antiproliferative activity on VCap, C4-2, 22Rv1 and LnCap cells (in words) [2]	antiproliferative activity on VCap and C4-2 cells (in words) ([2]; 227Th-labelled compounds, in comparison to 227Th-labelled examples 1-C monomer, dimer, trimer and tetramer)	% remaining 3H-PSMA-617 @ 10 nM (mean) [1] [%]	% remaining 3H-PSMA-617 @ 100 nM (mean) [1] [%]	T/Carea [3]
Cc1cc(C(=O)NCCN(CCCN(CCNC(=O)c2cc(C)n(CC(=O)O)c(=O)c2O)CCNC(=O)c2cc(C)n(CC(=O)NC[C@H]3CC[C@H](C(=O)N[C@@H](Cc4ccc5ccccc5c4)C(=O)NCCCC[C@H](NC(=O)N[C@@H](CCC(=O)O)C(=O)O)C(=O)O)CC3)c(=O)c2O)CCNC(=O)c2cc(C)n(CC(=O)O)c(=O)c2O)c(O)c(=O)n1CC(=O)O [Example 1-C Monomer]	32	5	improved competition	high antiproliferative activity				
Cc1cc(C(=O)NCCN(CCCN(CCNC(=O)c2cc(C)n(CC(=O)O)c(=O)c2O)CCNC(=O)c2cc(C)n(CC(=O)NC[C@H]3CC[C@H](C(=O)N[C@@H](Cc4ccc5ccccc5n4)C(=O)NCCCC[C@H](NC(=O)N[C@@H](CCC(=O)O)C(=O)O)C(=O)O)CC3)c(=O)c2O)CCNC(=O)c2cc(C)n(CC(=O)O)c(=O)c2O)c(O)c(=O)n1CC(=O)O [Example 17-C monomer]	42	8		high antiproliferative activity				
Cc1cc(C(=O)NCCN(CCCN(CCNC(=O)c2cc(C)n(CC(=O)NCc3ccc(C(=O)N[C@@H](Cc4ccc5ccccc5n4)C(=O)NCCCC[C@H](NC(=O)N[C@@H](CCC(=O)O)C(=O)O)C(=O)O)nc3)c(=O)c2O)CCNC(=O)c2cc(C)n(CC(=O)NCc3ccc(C(=O)N[C@@H](Cc4ccc5ccccc5n4)C(=O)NCCCC[C@H](NC(=O)N[C@@H](CCC(=O)O)C(=O)O)C(=O)O)nc3)c(=O)c2O)CCNC(=O)c2cc(C)n(CC(=O)NCc3ccc(C(=O)N[C@@H](Cc4ccc5ccccc5n4)C(=O)NCCCC[C@H](NC(=O)N[C@@H](CCC(=O)O)C(=O)O)C(=O)O)nc3)c(=O)c2O)c(O)c(=O)n1CC(=O)NCc1ccc(C(=O)N[C@@H](Cc2ccc3ccccc3n2)C(=O)NCCCC[C@H](NC(=O)N[C@@H](CCC(=O)O)C(=O)O)C(=O)O)nc1 [34-C tetramer]	73	14		high antiproliferative activity	improved antiproliferative activity			
CNc1cc(CC(NC(=O)C2CCC(CNC(=O)Cn3c(C)cc(C(=O)NCCN(CCCN(CCNC(=O)c4cc(C)n(CC(=O)O)c(=O)c4O)CCNC(=O)c4cc(C)n(CC(=O)NCC5CCC(C(=O)NC(Cc6cc(NC)c7ccccc7c6)C(=O)NCCCCC(NC(=O)NC(CCC(=O)O)C(=O)O)C(=O)O)CC5)c(=O)c4O)CCNC(=O)c4cc(C)n(CC(=O)O)c(=O)c4O)c(O)c3=O)CC2)C(=O)NCCCCC(NC(=O)NC(CCC(=O)O)C(=O)O)C(=O)O)cc2ccccc12 (centres unmarked) [37-C dimer]				high antiproliferative activity		64	13	
Cc1cc(C(=O)NCCN(CCCN(CCNC(=O)c2cc(C)n(CC(=O)NC[C@H]3CC[C@H](C(=O)N[C@@H](Cc4cnc5ccccc5c4)C(=O)NCCCC[C@H](NC(=O)N[C@@H](CCC(=O)O)C(=O)O)C(=O)O)CC3)c(=O)c2O)CCNC(=O)c2cc(C)n(CC(=O)NC[C@H]3CC[C@H](C(=O)N[C@@H](Cc4cnc5ccccc5c4)C(=O)NCCCC[C@H](NC(=O)N[C@@H](CCC(=O)O)C(=O)O)C(=O)O)CC3)c(=O)c2O)CCNC(=O)c2cc(C)n(CC(=O)NC[C@H]3CC[C@H](C(=O)N[C@@H](Cc4cnc5ccccc5c4)C(=O)NCCCC[C@H](NC(=O)N[C@@H](CCC(=O)O)C(=O)O)C(=O)O)CC3)c(=O)c2O)c(O)c(=O)n1CC(=O)O [Example 22-C trimer]				high antiproliferative activity		33	5	
Cc1cc(C(=O)NCCN(CCCN(CCNC(=O)c2cc(C)n(CC(=O)NC[C@H]3CC[C@H](C(=O)N[C@@H](Cc4ccc5ccccc5c4)C(=O)NCCCC[C@H](NC(=O)N[C@@H](CCC(=O)O)C(=O)O)C(=O)O)CC3)c(=O)c2O)CCNC(=O)c2cc(C)n(CC(=O)NC[C@H]3CC[C@H](C(=O)N[C@@H](Cc4ccc5ccccc5c4)C(=O)NCCCC[C@H](NC(=O)N[C@@H](CCC(=O)O)C(=O)O)C(=O)O)CC3)c(=O)c2O)CCNC(=O)c2cc(C)n(CC(=O)NC[C@H]3CC[C@H](C(=O)N[C@@H](Cc4ccc5ccccc5c4)C(=O)NCCCC[C@H](NC(=O)N[C@@H](CCC(=O)O)C(=O)O)C(=O)O)CC3)c(=O)c2O)c(O)c(=O)n1CC(=O)NC[C@H]1CC[C@H](C(=O)N[C@@H](Cc2ccc3ccccc3c2)C(=O)NCCCC[C@H](NC(=O)N[C@@H](CCC(=O)O)C(=O)O)C(=O)O)CC1 [1-C tetramer]	59	7	improved competition	high antiproliferative activity				0.36
Cc1cc(C(=O)NCCN(CCCN(CCNC(=O)c2cc(C)n(CC(=O)NC[C@H]3CC[C@H](C(=O)N[C@@H](Cc4ccc5ccccc5c4)C(=O)NCCCC[C@H](NC(=O)N[C@@H](CCC(=O)O)C(=O)O)C(=O)O)CC3)c(=O)c2O)CCNC(=O)c2cc(C)n(CC(=O)NC[C@H]3CC[C@H](C(=O)N[C@@H](Cc4ccc5ccccc5c4)C(=O)NCCCC[C@H](NC(=O)N[C@@H](CCC(=O)O)C(=O)O)C(=O)O)CC3)c(=O)c2O)CCNC(=O)c2cc(C)n(CC(=O)NC[C@H]3CC[C@H](C(=O)N[C@@H](Cc4ccc5ccccc5c4)C(=O)NCCCC[C@H](NC(=O)N[C@@H](CCC(=O)O)C(=O)O)C(=O)O)CC3)c(=O)c2O)c(O)c(=O)n1CC(=O)O [1-C trimer]	45	9	improved competition	high antiproliferative activity				
